{"source": "patent US8778882B2", "about": "“Agent for strengthening calcium containing tissue and use thereof” (Hayashibara Co., Ltd., priority 2002, dated 2014)", "key": {"[1]": {"test_system": "Mouse MC3T3-E1 cells", "assay": "Calcium deposition by alizarin red-S staining", "assay_type": "cell-based", "parameters": "key: +: same strength of red color as a negative control (only medium containing 0.2% (v/v) ethanol); ++: half strength of the positive control; +++: same strength of red color as a positive control (indomethacin)", "details": "MC3T3-E1, 20 mM each compound (so in the source), eight days, alizarin red-S red color judgement", "description": "Following Experiment 1 which investigates differentiating pre-osteoblastic cells into osteoblastic cells, some of organic compounds were investigated whether they actually enhance calcium deposition or not. Indomethacin (commercialized by Funakoshi, Co., Ltd., Tokyo, Japan) (positive control), kaempferol (commercialized by Funakoshi, Co., Ltd., Tokyo, Japan), hesperetin (commercialized by Funakoshi, Co., Ltd., Tokyo, Japan), gallic acid (commercialized by Nacalai Tesque, Kyoto, Japan), and coffeic acid (commercialized by Wako Pure Chemical Industries, Osaka, Japan) were selected as organic compounds. Mouse MC3T3-E1 cells were treated with 20 mM each above compound dissolved in 1 ml of α-MEM medium supplemented with 10% (v/v) fetal calf serum and containing 10 mM β-glycerophosphate. Since final ethanol concentration in the medium is 0.2% (v/v), α-MEM medium containing 0.2% (v/v) ethanol was prepared as a negative control. The cells were inoculated for eight days as changing the medium therewith to fresh medium with or without each sample per three days. The cells were applied to measure calcium deposition therein by usual alizarin red-S staining method. Briefly to the cells washed with 1 ml of Dulbecco phosphate buffer saline twice after removing the medium were added 1 ml of 50 (v/v) % ethanol aqueous solution and incubated for 10 minutes. After removing the 50 (v/v) % ethanol aqueous solution, the cells were incubated with 1 ml of distilled water for 10 minutes. After removing the water, the cells were applied with 1 ml of 1% (w/v) alizarin red-S solution, incubated for 10 minutes, and washed with 1 ml of distilled water for three times after removing alizarin red-S solution. Then, the calcium deposition amount was measured in a manner of judging red color on the plate bottom since deposited calcium was stained by the above treatment. The judgement criterion “+” means same strength of red color as a negative control (only medium containing 0.2% (v/v) ethanol), “+++” means same strength of red color as a positive control (indomethacin), and “++” means half strength of the positive control."}, "[2]": {"test_system": "mouse pre-osteoblastic cell MC3T3-E1", "assay": "Alkaline phosphatase activity in mouse pre-osteoblastic cells", "assay_type": "cell-based", "protocol": "To increase number of osteoblastic cells having calcium-deposition activity is important for increasing bone mass. […] The activity is at low level in pre-osteoblastic cells and at high level in osteoblastic cells differentiated form the pre-osteoblastic cells. […] Since final ethanol concentration in the medium is 0.2% (v/v), α-MEM medium containing 0.2% (v/v) ethanol was prepared as a negative control. The cells were inoculated for eight days as changing the medium therewith to fresh medium with or without each sample per three days. Alkaline phosphatase activity was measured using “Alkaline Phospha B-Test Wako” (commercialized by Wako Pure Chemical Industries, Osaka, Japan) according with Kajii et al (Archives of Oral Biology, Vol. 44, pp. 233-241, (1999)). Briefly, to the above described mouse pre-osteoblastic cells washed with 1 ml of 0.25 M sucrose solution three times after removing the medium were added 0.45 ml of 50 mM carbonate salt buffer (pH9.8) containing 1 mM magnesium chloride and 50 mM sucrose and 0.05 ml of 3.4 mM disodium p-nitrophenyl phosphate in due course. The mixture was incubated at 25° C. for five minutes and admixed with 1.5 ml of 0.6N sodium hydroxide as a reaction terminator. Absorbance 405 nm of p-nitrophenol generated by alkaline phosphatase in the resulting mixture was measured, and the obtained values were used as values as alkaline phosphatase activity. […] The experiment was performed by the method according to Experiment 1 except that culture day in the medium containing each sample was three, six or nine, and concentration of each sample was 5, 10 or 20 μM. […] As a negative control, mediums containing ethanol in the above concentration were prepared for calculating relative activity to the activity of each control."}, "[3]": {"test_system": "Rat Femur and Tibia", "assay": "Enhancing calcium deposition in rat femur and tibia", "assay_type": "in vivo", "details": "rats fed sample in high sucrose feeding stuff for eight weeks", "protocol": "The experiment was performed using six three-weeks-aged female Wister rats per one group. The rats were fed with high sucrose feeding stuff containing ingredients listed Table 11 (In the Table, each value means “weight %”.) and one part by weight of each test sample; hesperetin (commercialized by Funakoshi, Co., Ltd., Tokyo, Japan), quercetin (commercialized by Tokyo Kasei Kogyo, Co., Ltd., Tokyo, Japan), α-glycosyl hesperidin (product name “αG HESPERIDINE”, commercialized by Hayashibara Shoji Inc., Okayama, Japan), α-glycosyl rutin (product name “αG RUTIN P”, commercialized by Hayashibara Shoji Inc., Okayama, Japan), or ipriflavone (commercialized by Daito Corporation, Toyama, Japan) (positive control). As a negative control, rats fed with feedstuff containing one part by weight of sucrose replacing test sample were prepared. The rats were allowed to freely take water. The rats were killed after eight weeks, and then, their femurs and tibias were excised. Each femur or tibia dried at 100° C. for about six hours was measured by electric even balance for high precision analysis (product name “HA180M/12QM”, commercialized by A & D Co, Ltd., Tokyo, Japan), and then, each bone was placed into a crucible and burned in an incinerator at 950° C. for six hours. The cinerary resultant was resolved in hydrochloric solution and provided for measuring calcium amount by atomic absorption photometer. Calcium amount per one dried bone was calculated and compared each other."}}}
{"smiles": "COc1ccc([C@@H]2CC(=O)c3c(O)cc(O)cc3O2)cc1O", "note": "[Hesperetin]", "values": [{"measurement": "Calcium Deposition Amount", "setting": "[1]", "value": "+++"}, {"measurement": "enhancement of alkaline phosphatase activity compared with ipriflavone (FIG. 1)", "setting": "[2]; MC3T3-E1, 5, 10 or 20 μM, day three, six or nine", "value": "equally enhances"}, {"measurement": "Relative Alkaline Phosphatase Activity (%)", "setting": "[2]; flavonoid comparison, method of Experiment 1, relative to 0.2% (v/v) ethanol negative control", "value": 116, "unit": "%"}, {"measurement": "Calcium Content Per One Dried Bone", "setting": "[3]; Femur", "value": 125.1, "unit": "mg"}, {"measurement": "Dried Bone Mass", "setting": "[3]; Femur", "value": 0.463, "unit": "g"}, {"measurement": "Calcium Content Per One Dried Bone", "setting": "[3]; Tibia", "value": 109.0, "unit": "mg"}, {"measurement": "Dried Bone Mass", "setting": "[3]; Tibia", "value": 0.357, "unit": "g"}]}
